Columns and labels:
OA rat model [1] = assay: Immunofluorescence and immunohistochemistry of joint sections in OA rats; type: in vivo, SD rats; settings: 100 mg/kg IA, 4 weeks
Method: The knee joints were fixed in 4% paraformaldehyde, decalcified for 4 weeks, and embedded in paraffin for histological evaluation. Subsequently, the samples were sectioned and stained with hematoxylin and eosin (H&E) as well as […]/Fast Green. An enhanced Mankin scoring system was used to assess the pathologic status of the knee joint. Sections were incubated overnight at 4 °C with primary antibodies and further stained with a fluorescently labeled secondary antibody or 3,3'-diaminobenzidine (DAB)-tagged secondary antibody for immunohistochemical analysis.

[2] = tested on: LPS-stimulated RAW264.7 cells; assay: COX-2 and pro-inflammatory factor expression (qRT-PCR, immunofluorescence); type: cell-based, mouse; settings: RAW264.7, 1 µg/mL LPS, 400 µM; 6 h, 12 h (PCR), 12 h or 24 h (immunofluorescence)
Method: After treatment, cells were harvested and total RNA was extracted using a total RNA purification kit (SparkJade, China), and cDNA was obtained from total RNA by a reverse transcription kit (SparkJade). Finally, qRT-PCR was performed using SYBR Green qPCR premix (SparkJade) on QuantGene 9600 real-time PCR (Bioer, Hangzhou, China). 2 Calculation of Relative Gene Expression-ΔΔCT method was used, and GAPDH was used as an internal reference gene.
Immunofluorescence staining was performed following a general procedure. After treatment, cells were fixed with 4% paraformaldehyde for 20 min, and permeabilized in 0.5% Triton X-100 for 5 min. 10% goat serum was used to block non-specific binding. Cells were then incubated with primary antibodies overnight. Then cells were incubated with fluorescently labeled secondary antibody for 1 h. […] For assessing RAW264.7 macrophage polarization, permeabilization procedure is not needed; anti-CD86 and anti-CD163 primary antibodies were used for identifying M1 macrophage or M2 macrophage, respectively. Primary antibodies included: anti-CD86 (1:300), anti-CD163 (1:300), anti-COX2 (1:300) and anti-COL2 (1:300). Cy3 or FITC labeled secondary antibodies were used for fluorescent imaging.

OA rat model [3] = assay: Footprint gait analysis in MIA-induced OA rats; type: in vivo, SD rats; settings: IA injection, 100 mg/kg, 2 weeks
Method: The OA model was induced by local injection of 50 µL/1mg sodium iodoacetate (MIA) into the joint cavity of each rat. Rats injected with saline were treated as the sham group (n = 6). […] Each group contained 6 rats. 50 µL drugs were injected locally at day 0 and day 14, respectively. After 14 days of treatment, the rats were examined by indentation-collecting gait analysis, after which the rats were euthanized with isoflurane, and the knee joints were sampled for gross morphological observation. After 28 days of treatment, sampling was performed for micro-CT analysis, histological staining and immunohistochemistry.
The cardboard is laid flat on the floor. Both forelimbs of the rats were covered with blue ink and both hind legs with red ink, ensuring that the movements of the animals were as clear as possible. The sides of the runway consisted of cardboard, and the width was rationalized according to the weight and size of the rat. The room environment was kept quiet and the rats were placed on one side of the runway and allowed to pass freely. Before the start of the experiment, the rats were given two consecutive days of behavioral acclimatization training.

[4] = tested on: LPS-stimulated RAW264.7 cells; assay: ELISA quantification of PGE2; type: cell-based, mouse; settings: 400 µM, 6 h, 12 h, n = 3
Text: Figure 4 COX-2 inhibition of NpxFFK. (A) molecular docking of COX-2 (PDB ID: 6COX) with NpxFFK. (B) Binding of NpxFFK with amino acid residues in the active pocket of COX-2. (C) Schematic representation of the anti-inflammatory mechanism of Npx and the peptide NpxFFK. […] Scale bars represent 200 µm. […] The blank groups in panel D-G referred to the RAW264.7 cells without stimulation of LPS.

[5] = ABTS+ free radical scavenging test; settings: PBS (pH 7.2), 400 µM, 30 mins, 25 °C, absorbance 734 nm, n = 3
Method: (§1) DPPH free radical scavenging test
(§2) DPPH (2, 2-Diphenyl -1-[…]) radical solution (0.58 mg/mL) was prepared by dissolving DPPH radical in anhydrous ethanol. Briefly, 6mg of […]
(§3) solution which were then incubated in dark for 2 h at 25°C. The absorbance of the mixed solution at 517 nm was measured using an enzyme-labeled instrument. The scavenging ability was calculated as DPPH free radical scavenging rate (%) = [(A0-A1)/A0] × 100%, where A0 is the absorbance of DPPH free radical solution, A1 is the absorbance of sample group. The experiment was repeated three times for each sample.
(§4) ABTS·+ free radical scavenging test […]
(§5) free radical solution, and then incubated at 25 °C for 30 mins in dark. The absorbance at 734 nm was measured using an enzyme-labeled instrument.
(§6) ABTS+ free radical scavenging activity is calculated according to the following formula: ABTS+ free radical scavenging rate (%) = [(A0-A1)/A0] × 100%, where A0 is the absorbance of ABTS+ free radical solution, and A1 is the absorbance of sample group. […]
(§7) Figure S14. Quantitative analysis of immunofluorescent staining of macrophages in Figure 5A and 5B. […]
(§8) Figure S16. Quantitative analysis of ROS fluorescent intensities (A) in Figure 5D, and fluorescent ratio of JC-1 in aggregate to monomer (B) in Figure 5E. […]

[6] = DPPH free radical scavenging test; settings: PBS (pH 7.2), 400 µM, 2 h, 25 °C, absorbance 517 nm, n = 3
Method: as §1, §2, §3, §4, §5, §6, §7, §8

[7] = TEM imaging of assemblies; type: physicochemical; settings: TEM images
Method: (C) FTIR spectra of NpxFFR (light green), NpxFFK (orange), NpxFFH (dark green), NpxFFE (purple) and Npx (medium spring green). (D) Hydrogel formation of Npx-peptide conjugates at 20 mg/mL concentration in ddH2O. […] (F) Zeta potential measurements of 400 µM Npx-peptide conjugates at pH:7.2. (G) TEM images of Npx and Npx-peptide conjugates. Scale bars represent 200 nm.

[8] = Zeta potential measurements; type: physicochemical; settings: 400 µM; pH:7.2 (Figure 2F legend), text says physiological pH 7.4
Text: Scale bars represent 200 nm.
Under physiological conditions, glutamic acid carries a negative charge, while histidine, lysine, and arginine carry positive charges.

C28/I2 chondrocytes = assay: Chondrocyte proliferation (Calcein-AM staining and MTT quantification); type: cell-based, human; settings: C28/I2 chondrocytes, 1, 2 and 3 days, compared to non-treated control

COc1ccc2cc([C@H](C)C(=O)O)ccc2c1 [Npx, naproxen]
Expression of COX-2, TNF-α and IL-1β in joint sections (OA rat model [1]): significantly reduced the expression of COX-2
COX-2 expression at gene level and protein level [2]: downregulated COX-2 expression
Stride length (OA rat model [3]; sham 12.83 cm, saline 7.57 cm): 9.42 cm
Hindpaw contact area (OA rat model [3]; versus sham and saline): partial improvement
PGE2 production [4]: reduced PGE2 production
ABTS+ radical scavenging activity [5]: neglectable radical scavenge activity
DPPH radical scavenging activity [6]: neglectable radical scavenge activity
Morphology of assemblies (TEM) [7]: uneven aggregates
Zeta Potential [8]: -20.3 mV
Effect on chondrocyte proliferation (C28/I2 chondrocytes): the proliferation decreased over time

— article PMC12439141, “Self-Assembling Hydrogels of Naproxen-Conjugated Peptides for Osteoarthritis Treatment” (Theranostics, 2025)
